Reference: US20250179047A1, “5-[7-(3,4-DIHYDRO-1H-ISOQUINOLINE-2-CARBONYL)-1,2,3,4 TETRAHYDROISOQUINOLIN-6-YL]-1H-PYRROLE-3-CARBOXAMIDE DERIVATIVES, PHARMACEUTICAL COMPOSITIONS CONTAINING THEM AND THEIR USES AS PRO-APOPTOTIC AGENTS” (LES LABORATOIRES SERVIER, priority 2022, published 2025)

How the values were obtained:
BCLXL WT = BCLXL WT (Homo sapiens (Human), UniProt Q07817); experiment: TR-FRET competitive binding assay, BCLXL WT; settings: for Ki: BCLXL WT, Ki determined from IC50, read-out: TR_FRET EKI BclxL; for TR_FRET EKI BCLxL/WT selectivty ratio: ratio Ki BCLxL / Ki BCL2 WT
In short: (§1)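 Ki derived from IC50 (11-point dilution, 520/495 nm emission ratio) for displacing a fluorescein-labelled PUMA peptide (2 or 20 nM). Target was 0.5 nM E. coli-expressed Halo-tagged BCL2 (1-207) or BCLXL (2-196), terbium-labelled on Halo. Incubation 2 h at 23°C in pH 7.5 Hepes with 150 mM NaCl and 5% DMSO.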

BCL2 D103Y = BCL2 D103Y (Homo sapiens, UniProt P10415, D103Y); experiment: TR-FRET competitive binding assay, BCL2 D103Y; settings: Ki determined from IC50, read-out: TR_FRET EKI_Bcl2 D103Y
In short: as §1

KMS-12-PE Bcl-2 WT = experiment: In vitro cytotoxicity CellTiter-Glo 48 h, KMS-12-PE Bcl-2 WT; format: cell-based; settings: Homo sapiens, KMS-12-PE, C50 = concentration needed to reach 50% of the cellular viability
In short: (§2)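 KMS-12-PE myeloma cells lentivirally transduced with Bcl-2 WT or G101V (TagRFP-sorted), exposed to compound 11-point dose-response for 48 h at 37 °C, 5% CO2. Viability read by CellTiter-Glo ATP luminescence; C50 is the concentration giving 50% cellular viability.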

BCL2 D111A = BCL2 D111A (Homo sapiens, UniProt P10415, D111A); experiment: TR-FRET competitive binding assay, BCL2 D111A; settings: Ki determined from IC50, read-out: TR_FRET EKI_Bcl2 D111A
In short: as §1

BCL2 F104I = BCL2 F104I (Homo sapiens, UniProt P10415, F104I); experiment: TR-FRET competitive binding assay, BCL2 F104I; settings: Ki determined from IC50, read-out: TR_FRET EKI_Bcl2 F104I
In short: as §1

KMS-12-PE Bcl-2 G101V = experiment: In vitro cytotoxicity CellTiter-Glo 48 h, KMS-12-PE Bcl-2 G101V; format: cell-based; settings: for Ratio (G101V/WT): C50 KMS-12-PE Bcl-2 G101V over C50 KMS-12-PE Bcl-2 WT; for IC50: Homo sapiens, KMS-12-PE, 48 h, CellTiter-Glo, C50 = concentration needed to reach 50% of the cellular viability
In short: as §2

BCL2 WT = BCL2 WT (Homo sapiens (Human), UniProt P10415); experiment: TR-FRET competitive binding assay, BCL2 WT; settings: Ki determined from IC50, read-out: TR_FRET EKI_Bcl2 WT
In short: as §1

BCL2 G101V [1] = experiment: TR-FRET competitive binding assay, BCL2 G101V; design: species or system human; settings: ratio Ki BCL2 G101V / Ki BCL2 WT
In short: as §1

BCL2 G101V [2] = target: BCL2 G101V (Homo sapiens, UniProt P10415, G101V); experiment: TR-FRET competitive binding assay, BCL2 G101V; settings: BCL2 G101V; Ki determined from IC50; read-out: TR_FRET EKI_Bcl2 G101V
In short: as §1

BCLXL WT, sequence (Q07817 other isoform, or with tags, fused parts or gaps): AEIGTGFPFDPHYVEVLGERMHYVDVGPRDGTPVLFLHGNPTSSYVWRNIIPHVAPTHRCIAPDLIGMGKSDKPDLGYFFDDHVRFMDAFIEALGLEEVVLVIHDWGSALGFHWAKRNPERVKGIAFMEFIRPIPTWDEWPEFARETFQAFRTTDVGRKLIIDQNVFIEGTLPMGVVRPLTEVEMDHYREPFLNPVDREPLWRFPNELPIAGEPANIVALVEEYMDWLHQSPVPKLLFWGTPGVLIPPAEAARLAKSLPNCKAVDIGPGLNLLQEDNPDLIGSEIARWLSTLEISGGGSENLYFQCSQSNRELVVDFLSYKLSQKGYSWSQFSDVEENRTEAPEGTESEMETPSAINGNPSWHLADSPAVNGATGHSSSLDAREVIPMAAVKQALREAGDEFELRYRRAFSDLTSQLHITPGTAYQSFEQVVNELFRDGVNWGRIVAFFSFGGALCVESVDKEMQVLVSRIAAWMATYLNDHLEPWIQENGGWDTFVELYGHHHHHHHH

| Structure (SMILES) | Ki (BCLXL WT) [pM] | TR_FRET EKI BCLxL/WT selectivty ratio (BCLXL WT) | Ki (BCL2 D103Y) [pM] | IC50 (KMS-12-PE Bcl-2 WT) [µM] | Ki (BCL2 D111A) [pM] | Ki (BCL2 F104I) [pM] | Ratio (G101V/WT) (KMS-12-PE Bcl-2 G101V) | IC50 (KMS-12-PE Bcl-2 G101V) [µM] | Ki (BCL2 WT) [pM] | TR_FRET EKI G101V/WT selectivty ratio (BCL2 G101V [1]) | Ki (BCL2 G101V [2]) [pM] |
| --- | --- | --- | --- | --- | --- | --- | --- | --- | --- | --- | --- |
| COc1ncc(N(C(=O)c2cc(-c3cc4c(cc3C(=O)N3Cc5ccccc5C[C@H]3C)CN(C(=O)Cc3ccc(OCCN5CCOCC5)cc3F)CC4)n(C)c2C)c2ccc(O)cc2)cc1F [Example 111, 5-[2-(2-{2-fluoro-4-[2-(morpholin-4-yl)ethoxy]phenyl}acetyl)-7-{[(3R)-3-methyl-3,4-dihydro-1H-isoquinolin-2-yl]carbonyl}-3,4-dihydro-1H-isoquinolin-6-yl]-N-(5-fluoro-6-methoxypyridin-3-yl)-N-(4-hydroxyphenyl)-1,2-dimethylpyrrole-3-carboxamide] | 7200 | 48.0 | 590 | 0.0048 | 400 | 790 | 8.18 | 0.0392 | 150 | 5.2 | 800 |
| Cc1cc(OCCN2CCOCC2)ccc1CC(=O)N1CCc2cc(-c3cc(C(=O)N(c4ccc(O)cc4)c4cc(C#N)n(C)c4C)c(C)n3C)c(C(=O)N3Cc4ccccc4C[C@H]3CN3CCCCC3)cc2C1 [Example 113, N-(5-cyano-1,2-dimethyl-1H-pyrrol-3-yl)-N-(4-hydroxyphenyl)-1,2-dimethyl-5-[2-(2-{2-methyl-4-[2-(morpholin-4-yl)ethoxy]phenyl}acetyl)-7-[(3S)-3-[(piperidin-1-yl)methyl]-1,2,3,4-tetrahydroisoquinoline-2-carbonyl]-1,2,3,4-tetrahydroisoquinolin-6-yl]-1H-pyrrole-3-carboxamide] | 3600 | 69.2 | 150 | 0.0063 | 130 | 270 | 4.38 | 0.0278 | 50 | 5.2 | 300 |
| Cc1c(N(C(=O)c2cc(-c3cc4c(cc3C(=O)N3Cc5ccccc5C[C@H]3CN3CCCCC3)CN(C(=O)Cc3ccc(OCCN5CCC(F)CC5)cc3F)CC4)n(C)c2C)c2ccc(O)cc2)cc(C#N)n1C [Example 115, N-(5-cyano-1,2-dimethyl-1H-pyrrol-3-yl)-5-[2-(2-{2-fluoro-4-[2-(4-fluoropiperidin-1-yl)ethoxy]phenyl}acetyl)-7-[(3S)-3-[(piperidin-1-yl)methyl]-1,2,3,4-tetrahydroisoquinoline-2-carbonyl]-1,2,3,4-tetrahydroisoquinolin-6-yl]-N-(4-hydroxyphenyl)-1,2-dimethyl-1H-pyrrole-3-carboxamide] | 2800 | 100.0 | 80 | 0.0072 | 170 | 300 | 6.05 | 0.0458 | 30 | 5.6 | 200 |
| Cc1c(N(C(=O)c2cc(-c3cc4c(cc3C(=O)N3Cc5ccccc5C[C@H]3CN3CCCCC3)CN(C(=O)Cc3ccc(OCCN5CCN(CCF)CC5)cc3F)CC4)n(C)c2C)c2ccc(O)cc2)cc(C#N)n1C [Example 117, N-(5-cyano-1,2-dimethyl-1H-pyrrol-3-yl)-5-{2-[2-(2-fluoro-4-{2-[4-(2-fluoroethyl)piperazin-1-yl]ethoxy}phenyl)acetyl]-7-[(3S)-3-[(piperidin-1-yl)methyl]-1,2,3,4-tetrahydroisoquinoline-2-carbonyl]-1,2,3,4-tetrahydroisoquinolin-6-yl}-N-(4-hydroxyphenyl)-1,2-dimethyl-1H-pyrrole-3-carboxamide] | 1700 | 36.2 | 110 | 0.0081 | 110 | 180 | 4.09 | 0.033 | 50 | 5.3 | 300 |
| Cc1c(N(C(=O)c2cc(-c3cc4c(cc3C(=O)N3Cc5ccccc5C[C@H]3CN3C[C@H]5C[C@H]5C3)CN(C(=O)Cc3ccc(OCCN5CCOCC5)cc3F)CC4)n(C)c2C)c2ccc(O)cc2)cc(C#N)n1C [Example 120, 5-{7-[(3S)-3-{[cis-3-azabicyclo[3.1.0]hexan-3-yl]methyl}-1,2,3,4-tetrahydroisoquinoline-2-carbonyl]-2-(2-{2-fluoro-4-[2-(morpholin-4-yl)ethoxy]phenyl}acetyl)-1,2,3,4-tetrahydroisoquinolin-6-yl}-N-(5-cyano-1,2-dimethyl-1H-pyrrol-3-yl)-N-(4-hydroxyphenyl)-1,2-dimethyl-1H-pyrrole-3-carboxamide] | 5300 | 53.0 | 210 | 0.0032 | 300 | 370 | 5.83 | 0.0186 | 100 | 5.2 | 500 |
| Cc1c(N(C(=O)c2cc(-c3cc4c(cc3C(=O)N3Cc5ccccc5C[C@H]3CN3CCCCC3)CN(C(=O)Cc3ccc(OCCN5CCOC(C)(C)C5)cc3)CC4)n(C)c2C)c2ccc(O)cc2)cc(C#N)n1C [Example 121, N-(5-cyano-1,2-dimethyl-1H-pyrrol-3-yl)-5-[2-(2-{4-[2-(2,2-dimethylmorpholin-4-yl)ethoxy]phenyl}acetyl)-7-[(3S)-3-[(piperidin-1-yl)methyl]-1,2,3,4-tetrahydroisoquinoline-2-carbonyl]-1,2,3,4-tetrahydroisoquinolin-6-yl]-N-(4-hydroxyphenyl)-1,2-dimethyl-1H-pyrrole-3-carboxamide] | 6000 | 38.5 | 340 | 0.0076 | 230 | 560 | 5.25 | 0.0397 | 160 | 3.2 | 500 |
| Cc1c(N(C(=O)c2cc(-c3cc4c(cc3C(=O)N3Cc5ccccc5C[C@H]3CN3CCCC[C@H]3C)CN(C(=O)Cc3ccc(OCCN5CCOCC5)cc3F)CC4)n(C)c2C)c2ccc(O)cc2)cc(C#N)n1C [Example 123, N-(5-cyano-1,2-dimethyl-1H-pyrrol-3-yl)-5-[2-(2-{2-fluoro-4-[2-(morpholin-4-yl)ethoxy]phenyl}acetyl)-7-[(3S)-3-{[(2R)-2-methylpiperidin-1-yl]methyl}-1,2,3,4-tetrahydroisoquinoline-2-carbonyl]-1,2,3,4-tetrahydroisoquinolin-6-yl]-N-(4-hydroxyphenyl)-1,2-dimethyl-1H-pyrrole-3-carboxamide] | 2600 | 35.1 | 280 | 0.0038 | 130 | 180 | 4.82 | 0.0185 | 70 | 4.2 | 300 |
